Read-outs that look alike come from different tables or passages of the source.
Experiments:
Clostridium pasteurianum [1] = details: for Acetate Consumption / Acetate Consumption (percent of starting acetate) / Final Acetate / Final Butanol / Final Butyrate / Glycerol Consumption: 30 g/l glycerol, after 3 days of fermentation
Procedure: LM31 media at pH 7.4 was prepared as follows. All ingredients with the exception of Cysteine-HCl were mixed in 400 ml distilled water. This solution was made anaerobic by heating to boiling and allowing it to cool to room temperature under a constant flow of N2 gas. Once cool, the Cysteine-HCl was added and the pH of the solution adjusted to 7.4 before making the volume up to 1000 ml; anaerobicity was maintained throughout the experiments.
Bacteria: Clostridium pasteurianum were obtained from the German Resource Centre for Biological Material (DSMZ). The accession number given to the bacteria is DSMZ 525.
Incubation was performed in 234 ml sealed serum bottles each containing 50 ml of the media LM31. The 184 ml headspace of each serum bottle was first flushed three times with N2 gas, before being evacuated and filed to an overpressure of 5 psig. Each bottle was inoculated with 1 ml of a Clostridium pasteurianum culture. A shaking incubator was used and the reaction temperature was maintained at 37° C.
Media samples were taken at intervals over a 3 day period. Each time the media was sampled care was taken to ensure that no gas was allowed to enter into or escape from the serum bottle.
All samples were used to establish the absorbancy at 600 nm (spectrophotometer) and the level of substrates and products (GC or HPLC). HPLC was routinely used to quantify the level of glycerol, methanol, acetate, and ethanol. When n-butyric acid and butanol were present, GC was used in combination with HPLC to quantify the levels of all substrates and products (glycerol, acids and alcohols).
The aim was to test the effect of initial acetate concentration on glycerol fermentation by Clostridium pasteurianum to produce butanol.

Clostridium pasteurianum [2] = experiment: Effect of methanol on the fermentation of glycerol to butanol (serum bottle); format: cell-based; details: for Acetate Consumption / Final Butanol / Final Butyrate / Glycerol Consumption: 30 g/l glycerol, 2 g/l acetate, after 36 hours of fermentation
Description: In this experiment, the effect of methanol on the conversion of commercial glycerol to butanol was studied. […] In addition, acetate and glycerol consumption decreased.

Clostridium pasteurianum [3] = experiment: Comparison of fermentation of commercial glycerol and glycerol from biodiesel waste for butanol production; format: cell-based; details: 30 g/l commercial glycerol, 2 g/l acetate, after 36 hours of fermentation
Procedure: Thirty grams biodiesel waste was dissolved in water up to 100 ml and stirred until the solution was homogenous. While stirring, 10% Hydrochloric acid solution was added until pH was below 3.0, so total coagulation of free fatty acid would occur. In order to improve the phase separation, the sample was centrifuged for 1 minute at 4,000 g. At this stage 3 phases could be seen: the top layer appeared oily and contained mostly FAME (Fatty acid methyl ester); the middle phase contained mostly coagulated free fatty acids; and, the bottom phase (aqueous phase) was clear and contained mostly water, glycerol and methanol. The aqueous phase was withdrawn carefully, filtered on a 0.2 μm filter and pH was then raised to pH 7.0 by addition of Sodium hydroxide. At this stage, methanol was evaporated by heating the solution under stirring and vacuum maintained with a water-jet. Finally water can be added in order to dilute the glycerol solution.
The aim of this experiment was to test the glycerol obtained from biodiesel waste, in a fermentation with Clostridium pasteurianum to produce butanol, in the presence of 2 g/l acetate initial concentration. The conversion of commercial glycerol (first row) was compared with glycerol obtained from biodiesel waste containing methanol (second row) or where methanol was evaporated (last row). […] Levels of butanol and biomass were the highest for bacteria growing on glycerol obtained from biodiesel, where methanol was evaporated. Acetate (50%) was also consumed.

Compound: CC(=O)O [Acetate, Acetic acid, glacial, 99.8%]
- Acetate Consumption (Clostridium pasteurianum [1]; starting acetate 1.4 g/l): 0.4 g/L
- Acetate Consumption (percent of starting acetate) (Clostridium pasteurianum [1]; starting acetate 1.4 g/l): 28%
- Final Acetate (Clostridium pasteurianum [1]; starting acetate 1.4 g/l): 1.0 g/L
- Final Butanol (Clostridium pasteurianum [1]; starting acetate 1.4 g/l): 3.0 g/L
- Final Butyrate (Clostridium pasteurianum [1]; starting acetate 1.4 g/l): 0.5 g/L
- Glycerol Consumption (Clostridium pasteurianum [1]; starting acetate 1.4 g/l): 12 g/L
- Acetate Consumption (Clostridium pasteurianum [1]; starting acetate 2.2 g/l): 1.0 g/L
- Acetate Consumption (percent of starting acetate) (Clostridium pasteurianum [1]; starting acetate 2.2 g/l): 45%
- Final Acetate (Clostridium pasteurianum [1]; starting acetate 2.2 g/l): 1.2 g/L
- Final Butanol (Clostridium pasteurianum [1]; starting acetate 2.2 g/l): 3.5 g/L
- Final Butyrate (Clostridium pasteurianum [1]; starting acetate 2.2 g/l): 0.7 g/L
- Glycerol Consumption (Clostridium pasteurianum [1]; starting acetate 2.2 g/l): 13 g/L
- Acetate Consumption (Clostridium pasteurianum [1]; starting acetate 3.5 g/l): 1.6 g/L
- Acetate Consumption (percent of starting acetate) (Clostridium pasteurianum [1]; starting acetate 3.5 g/l): 45%
- Final Acetate (Clostridium pasteurianum [1]; starting acetate 3.5 g/l): 1.9 g/L
- Final Butanol (Clostridium pasteurianum [1]; starting acetate 3.5 g/l): 3.1 g/L
- Final Butyrate (Clostridium pasteurianum [1]; starting acetate 3.5 g/l): 1.1 g/L
- Glycerol Consumption (Clostridium pasteurianum [1]; starting acetate 3.5 g/l): 12 g/L
- acetate consumed in the course of the reaction (Clostridium pasteurianum [1]; increasing amounts of acetate added at the start of the fermentation): up to 45%

Compound: CO [Methanol]
- Acetate Consumption (Clostridium pasteurianum [2]; starting methanol 5.6 g/l): 0.8 g/L
- Final Butanol (Clostridium pasteurianum [2]; starting methanol 5.6 g/l): 2.4 g/L
- Final Butyrate (Clostridium pasteurianum [2]; starting methanol 5.6 g/l): 0.8 g/L
- Glycerol Consumption (Clostridium pasteurianum [2]; starting methanol 5.6 g/l): 14 g/L
- Acetate Consumption (Clostridium pasteurianum [2]; starting methanol 11.2 g/l): 0.8 g/L
- Final Butanol (Clostridium pasteurianum [2]; starting methanol 11.2 g/l): 2.0 g/L
- Final Butyrate (Clostridium pasteurianum [2]; starting methanol 11.2 g/l): 0.6 g/L
- Glycerol Consumption (Clostridium pasteurianum [2]; starting methanol 11.2 g/l): 13 g/L
- Acetate Consumption (Clostridium pasteurianum [2]; starting methanol 16.3 g/l): 0.6 g/L
- Final Butanol (Clostridium pasteurianum [2]; starting methanol 16.3 g/l): 1.1 g/L
- Final Butyrate (Clostridium pasteurianum [2]; starting methanol 16.3 g/l): 0.6 g/L
- Glycerol Consumption (Clostridium pasteurianum [2]; starting methanol 16.3 g/l): 11 g/L
- effect on the bacteria and butanol production (Clostridium pasteurianum [2]; increasing amounts of methanol, commercial glycerol): increasing inhibitory effect

Compound: OCC(O)CO [commercial glycerol, glycerol]
- Acetate Consumption (Clostridium pasteurianum [3]): 1.0 g/L
- Acetate Consumption (percent) (Clostridium pasteurianum [3]): 50%
- Final Butanol (Clostridium pasteurianum [3]): 2.9 g/L
- Final Butyrate (Clostridium pasteurianum [3]): 0.7 g/L
- Glycerol Consumption (Clostridium pasteurianum [3]): 15 g/L
